Reference: ChEMBL document CHEMBL1201862, “PubChem BioAssay data set” (2004)
Calls of active or inactive are those of the source.

Tests used:
Nonstructural protein 1 = Nonstructural protein 1 (Influenza A virus, UniProt Q194T2); assay type: functional, Influenza A virus (A/California/07/2009(H1N1))
Cytochrome P450 2C19 = Cytochrome P450 2C19 (Homo sapiens, UniProt P33261); experiment: Cytochrome panel assay with activity outcomes. Panel member name: p450-cyp2c19 Compounds with AC50 equal or less than 10 uM are considered active; assay type: functional; settings: read-out: AC50
Chain of Cytochrome P450 2C19 (P33261 whole entry): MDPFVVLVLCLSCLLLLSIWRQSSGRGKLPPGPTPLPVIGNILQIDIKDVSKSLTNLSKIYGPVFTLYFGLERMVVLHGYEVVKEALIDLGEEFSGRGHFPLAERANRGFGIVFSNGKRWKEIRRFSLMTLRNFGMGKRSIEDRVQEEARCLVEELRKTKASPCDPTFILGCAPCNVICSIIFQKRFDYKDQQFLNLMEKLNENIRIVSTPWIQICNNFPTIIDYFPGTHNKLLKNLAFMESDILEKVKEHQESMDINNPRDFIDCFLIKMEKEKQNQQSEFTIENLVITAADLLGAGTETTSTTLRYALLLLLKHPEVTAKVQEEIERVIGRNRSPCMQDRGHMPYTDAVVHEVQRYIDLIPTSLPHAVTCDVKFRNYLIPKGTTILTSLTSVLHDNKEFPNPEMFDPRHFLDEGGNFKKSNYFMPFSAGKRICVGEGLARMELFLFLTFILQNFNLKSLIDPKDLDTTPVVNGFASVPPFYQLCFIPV

[1] = target: T1, Ubiquitin-conjugating enzyme E2 N (Homo sapiens, UniProt P61088); assay type: functional
T1 sequence (P61088 whole entry): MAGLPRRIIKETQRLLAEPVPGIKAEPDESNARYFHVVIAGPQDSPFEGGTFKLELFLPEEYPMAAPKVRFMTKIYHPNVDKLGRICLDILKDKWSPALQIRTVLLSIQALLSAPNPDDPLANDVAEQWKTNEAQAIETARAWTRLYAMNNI

Bcl-2-related protein A1 = target: T2, Bcl-2-related protein A1 (Mus musculus, UniProt Q07440); assay type: functional;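 also: confirmatory dose–response counterscreen on Bfl-1, used to check hits from a UBC13 polyubiquitin inhibitor campaign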
T2 sequence (Q07440 whole entry): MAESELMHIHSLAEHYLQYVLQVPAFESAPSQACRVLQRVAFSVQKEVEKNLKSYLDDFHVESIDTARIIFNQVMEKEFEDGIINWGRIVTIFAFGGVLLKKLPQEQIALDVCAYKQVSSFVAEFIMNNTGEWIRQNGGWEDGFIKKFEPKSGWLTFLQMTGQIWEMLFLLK

[2] = target: T1, Ubiquitin-conjugating enzyme E2 N; assay type: functional; remark: listed apart in the source
cells = assay type: functional
[3] = Luminescence Cell-Based Dose Retest to Confirm Inhibitors of Cancer Stem Cells. [Related pubchem assays (depositor defined):AID2717, AID2721]; assay type: functional; settings: Homo sapiens
[4] = blockers of HIV-1 envelope-mediated cell-cell fusion – cherry-pick, dose response (AID 652057); assay type: functional, cell-based
[5] = HIV-1 AD8 envelope cell-cell fusion blockers – cherry-pick, dose response (AID 652062); assay type: functional, cell-based;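 also: luciferase signal from cell-cell fusion driven by HIV-1 clade B AD8 Env; potency is for inhibitors of fusion seen as a drop in luminescence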
[6] = target: T3, Zinc finger protein mex-5 (Caenorhabditis elegans, UniProt Q9XUB2); experiment: potency of MEX-5 RNA-binding blockers – biochemical, C. elegans, fluorescence polarization, dose response (AID 1960)
T3 sequence (Q9XUB2 whole entry): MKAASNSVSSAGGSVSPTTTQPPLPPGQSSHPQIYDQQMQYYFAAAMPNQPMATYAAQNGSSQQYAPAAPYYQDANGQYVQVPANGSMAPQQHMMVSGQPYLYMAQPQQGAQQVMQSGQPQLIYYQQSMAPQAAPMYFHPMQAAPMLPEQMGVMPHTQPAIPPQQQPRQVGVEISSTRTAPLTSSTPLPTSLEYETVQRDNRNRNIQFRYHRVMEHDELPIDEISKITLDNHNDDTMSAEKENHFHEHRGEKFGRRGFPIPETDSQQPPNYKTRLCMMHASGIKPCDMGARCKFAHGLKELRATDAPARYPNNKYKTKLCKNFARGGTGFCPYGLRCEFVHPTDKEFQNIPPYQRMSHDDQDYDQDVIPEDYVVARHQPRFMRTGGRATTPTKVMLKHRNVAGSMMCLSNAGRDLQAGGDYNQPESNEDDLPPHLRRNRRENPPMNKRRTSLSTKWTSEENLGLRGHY

[7] = target: T4, RNA-binding protein pos-1 (Caenorhabditis elegans, UniProt G5EF15); experiment: disruptors of C. elegans POS-1 RNA interaction – biochemical, fluorescence polarization, dose response (AID 1964);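 also: purified POS-1 fused to maltose binding protein made in E. coli; potency of compounds blocking POS-1 binding to fluorescent RNA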
T4 sequence (G5EF15 whole entry): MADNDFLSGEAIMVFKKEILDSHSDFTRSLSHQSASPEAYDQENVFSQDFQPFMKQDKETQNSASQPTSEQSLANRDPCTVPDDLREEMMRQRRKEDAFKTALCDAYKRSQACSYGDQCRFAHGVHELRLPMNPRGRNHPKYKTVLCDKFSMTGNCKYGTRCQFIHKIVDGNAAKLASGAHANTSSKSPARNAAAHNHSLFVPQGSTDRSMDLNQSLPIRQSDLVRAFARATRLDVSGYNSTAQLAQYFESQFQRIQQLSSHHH

[8] = viability of PTEN-deleted HCT116 cells – cell-based, HCT116 PTEN knockout, dose response (AID 1047); assay type: functional;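 also: HCT116 colon tumor cells with PTEN knocked out; cells exposed to compound for 60 hours before readout; potency for loss of cell viability measured by luminescence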
[9] = viability of HCT116 lacking mutant beta-catenin – cell-based, human colon tumor, dose response (AID 1045); assay type: functional;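 also: HCT116 colon tumor cells with beta catenin knocked out; cells exposed to compound for 60 hours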
[10] = target: T5, Rac GTPase-activating protein 1 (Homo sapiens, UniProt Q9H0H5); experiment: blockers of MgcRacGAP-driven Rac1 GTP hydrolysis – biochemical, ADP Hunter fluorescence, primary and confirmatory, confirmation (AID 624330); assay type: functional
T5 sequence (Q9H0H5 whole entry): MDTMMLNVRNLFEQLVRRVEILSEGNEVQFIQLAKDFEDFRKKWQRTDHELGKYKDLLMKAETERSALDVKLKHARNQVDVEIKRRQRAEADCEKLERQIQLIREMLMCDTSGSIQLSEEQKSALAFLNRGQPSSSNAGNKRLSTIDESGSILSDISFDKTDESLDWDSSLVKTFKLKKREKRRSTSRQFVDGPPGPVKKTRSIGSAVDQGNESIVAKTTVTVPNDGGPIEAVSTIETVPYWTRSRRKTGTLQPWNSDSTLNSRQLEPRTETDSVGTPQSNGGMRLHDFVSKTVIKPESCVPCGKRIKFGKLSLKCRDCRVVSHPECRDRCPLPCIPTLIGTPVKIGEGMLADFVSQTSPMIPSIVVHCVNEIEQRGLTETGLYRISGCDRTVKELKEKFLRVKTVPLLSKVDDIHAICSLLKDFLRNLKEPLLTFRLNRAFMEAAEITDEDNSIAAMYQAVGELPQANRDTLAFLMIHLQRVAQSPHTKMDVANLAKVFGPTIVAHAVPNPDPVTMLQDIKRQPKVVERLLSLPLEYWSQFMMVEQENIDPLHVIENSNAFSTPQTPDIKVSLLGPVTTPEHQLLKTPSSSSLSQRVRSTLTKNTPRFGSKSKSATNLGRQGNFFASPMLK

[11] = Luminescence Cell-Based Dose Response HTS to Identify Inhibitors of 5'UTR Stem-Loop Driven Prion Protein mRNA Translation in H4 Neuroglioblastoma Cells. [Related pubchem assays: 1827 (Project Summary), 1813 (Primary HTS)]; assay type: functional
[12] = luciferase reporter signal suppression in cells – H4 neuroglioma cells, luminescence, dose response (AID 1990); assay type: functional, cell-based
[13] = alpha-synuclein stem-loop luciferase translation blockers – H4 neuroglioma cells, luminescence, confirmation (AID 1988); assay type: functional, cell-based
[14] = NIH3T3 cell viability loss – ATP luminescence, mouse fibroblasts, counter-screen, dose response (AID 2010); assay type: functional, cell-based;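 also: cells exposed to compound for about 90 hours before reading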
[15] = Trypanosoma cruzi growth suppression in host cells – NIH3T3 host cells, beta-gal luminescence, confirmation (AID 2044); assay type: functional, cell-based;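 also: intracellular parasites grown in NIH/3T3 mouse fibroblasts as host cells; luminescent beta-galactosidase reporter signal from transgenic T. cruzi replicating inside host cells; inhibitors lower the luminescence signal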

Chain of Nonstructural protein 1 (Q194T2 whole entry): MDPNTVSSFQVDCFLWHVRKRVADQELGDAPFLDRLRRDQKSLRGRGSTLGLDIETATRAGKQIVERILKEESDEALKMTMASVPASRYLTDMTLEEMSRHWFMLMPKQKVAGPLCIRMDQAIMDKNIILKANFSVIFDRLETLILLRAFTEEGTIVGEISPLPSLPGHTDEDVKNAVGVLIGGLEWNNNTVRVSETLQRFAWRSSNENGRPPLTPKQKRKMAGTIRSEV

## CCNc1nc(NCC)nc(N(C)N)n1
Nonstructural protein 1
  IC50: 12.7 µM (active)
Cytochrome P450 2C19
  AC50: 0.00141 µM (inconclusive)

## O=C(CCCCn1c(=O)c2ccccc2n(Cc2ccccc2F)c1=O)NC1CCN(Cc2ccccc2)CC1
[1]
  IC50: 11.3 µM (active)
Bcl-2-related protein A1
  IC50: > 20 µM (inactive)
[2]
  IC50: 5.47 µM (active)

## Cc1cccc(OCCCCc2c(C)n[nH]c2C)c1
cells
  IC50: 9.67 µM (active)

## COc1ccc(-c2sc3ccccc3c2-c2ccc(OCCN3CCOCC3)cc2)cc1
[1]
  IC50: 15.1 µM (active)
[3]
  AC50: 0.842 µM (active)
Bcl-2-related protein A1
  IC50: > 20 µM (inactive)
[2]
  IC50: > 20 µM (inactive)

## CC1(C)SC2C(C(=O)O)N=C(Cc3ccccc3)N2C1C(=O)O (stereo unspecified)
Nonstructural protein 1
  IC50: 12.2 µM (active)

## C=CCOc1ccc(CNc2ccc(NC(=O)CCC)cc2)cc1OCC
Nonstructural protein 1
  IC50: > 100 µM (active)

## COc1cccc(NC(=O)N(C)C[C@@H]2OCc3ccccc3-c3c(n(C)c4ccccc34)C(=O)N([C@@H](C)CO)C[C@@H]2C)c1
[4]
  AC50: < 0.26 µM (active)
[5]
  AC50: < 0.26 µM (active)

## CCc1ccc(NC(=O)/C(C#N)=C/c2cc3ccc(C)cc3nc2N2CCOCC2)cc1
[6]
  EC50: 113 µM (active)
[7]
  EC50: 47.9 µM (active)

## Cc1ccc(S(=O)(=O)N[C@H]2C=C[C@H](CC(=O)N3CCC(Cc4ccccc4)CC3)O[C@H]2CO)cc1
[4]
  AC50: 69.4 µM (active)
[5]
  AC50: 34.3 µM (active)

## O=C1c2cccc3cccc(c23)C(=O)N1CCN1CCN(CC(O)COc2ccc3ccccc3c2)CC1 (stereo unspecified)
[1]
  IC50: 2.49 µM (active)
[8]
  EC50: 12 µM (active)
[3]
  AC50: 5.08 µM (active)
Bcl-2-related protein A1
  IC50: > 20 µM (inactive)
[2]
  IC50: 3.02 µM (active)
[9]
  EC50: 9.47 µM (active)

## C#CCOCCOCCOCCNc1nc(N2CCN(C(=O)[C@H](CCCCN)n3cc(CN)nn3)CC2)nc(N2CCN(C(=O)[C@H](CCC(=O)O)n3cc([C@@H](N)CCCCN)nn3)CC2)n1
[1]
  IC50: 2.85 µM (active)
[10]
  IC50: 190 µM (active)
Bcl-2-related protein A1
  IC50: > 20 µM (inactive)
[2]
  IC50: 2.79 µM (active)

## CCOC(=O)N/N=C\c1ccc([N+](=O)[O-])s1
cells
  IC50: 34 µM (active)

## Cc1nn(C(C)C(=O)N2CCOCC2)c(=O)c2nn(-c3ccccc3)c(C)c12 (stereo unspecified)
[6]
  EC50: > 300 µM (not active)
[7]
  EC50: > 300 µM (not active)

## N=C1c2ccccc2CN1NC(=O)CC12CC3CC(CC(C3)C1)C2
[6]
  EC50: > 300 µM (not active)
[7]
  EC50: > 300 µM (not active)

## CCN=C(S)N=Nc1c(O)[nH]c2ccc(C(C)C)cc12
[1]
  IC50: 6.7 µM (active)
Bcl-2-related protein A1
  IC50: > 20 µM (inactive)
[2]
  IC50: 2.49 µM (active)

## CC1(C)Cc2c(sc(NC(=O)COc3ccc(Cl)cc3Cl)c2C(N)=O)C(C)(C)N1
[1]
  IC50: 4.55 µM (active)
Bcl-2-related protein A1
  IC50: > 20 µM (inactive)
[11]
  EC50: 18.7 µM (active)
[2]
  IC50: 2.86 µM (active)
[12]
  EC50: 17.3 µM (active)
[13]
  EC50: > 120 µM (not active)

## CN(C)c1ccc(/C=C2\N=C(C(C)(C)C)OC2=O)cc1
cells
  IC50: 11.3 µM (active)
[6]
  EC50: 22.3 µM (inconclusive)
[7]
  EC50: 7.17 µM (active)

## O=C(CCCCn1c(=O)c2ccccc2n(Cc2ccccc2)c1=O)NC1CCN(Cc2ccccc2)CC1
[1]
  IC50: 9.28 µM (active)
[14]
  EC50: > 60 µM (not active)
Bcl-2-related protein A1
  IC50: > 20 µM (inactive)
[2]
  IC50: 5.17 µM (active)
[15]
  EC50: 0.695 µM (active)

## Cc1cccc(NC(=O)c2cc3ccccc3o2)c1
cells
  IC50: 40.5 µM (active)

## COC(=O)c1ccc(-n2c(CCC(=O)O)ccc2-c2ccccc2)cc1
[6]
  EC50: > 300 µM (not active)
[7]
  EC50: > 300 µM (not active)

## O=C(NNc1nc2cc3c(cc2s1)OCCO3)c1ccccc1
cells
  IC50: 48.3 µM (active)

## Cc1ccc(/C=N/NC(=O)c2ccncc2)o1
cells
  IC50: 1.18 µM (active)

## CCOC(=O)/C(C#N)=C1/C(=O)N(Cc2ccccc2)c2ccccc21
Nonstructural protein 1
  IC50: 99.6 µM (active)
[10]
  IC50: 61 µM (active)

## COCCN=C(S)N=Nc1c(O)[nH]c2c(C)cc(C)cc12
[1]
  IC50: 6.28 µM (active)
Bcl-2-related protein A1
  IC50: > 20 µM (inactive)
[2]
  IC50: 0.561 µM (active)

## O=C(CNCc1ccccn1)Nc1cc(S(=O)(=O)N2CCCCC2)ccc1Cl
Nonstructural protein 1
  IC50: 6.83 µM (active)
